Results: patent publication US8546442B2, “Pyrazolopiperidine compounds as CCR1 receptor antagonists” (Boehringer Ingelheim International GmbH, priority 2010, dated 2013)

molecular target: T1, CCR1 (Homo sapiens, UniProt P32246); assay: calcium flux in CCR1 transfected cells, Method B (Calcium 4 dye, HAMAMATSU FDSS6000); assay type: cell-based; details: cells stably expressing recombinant CCR1 and G-alpha-16, MIP-1alpha at EC80
T1 sequence (P32246 1-355): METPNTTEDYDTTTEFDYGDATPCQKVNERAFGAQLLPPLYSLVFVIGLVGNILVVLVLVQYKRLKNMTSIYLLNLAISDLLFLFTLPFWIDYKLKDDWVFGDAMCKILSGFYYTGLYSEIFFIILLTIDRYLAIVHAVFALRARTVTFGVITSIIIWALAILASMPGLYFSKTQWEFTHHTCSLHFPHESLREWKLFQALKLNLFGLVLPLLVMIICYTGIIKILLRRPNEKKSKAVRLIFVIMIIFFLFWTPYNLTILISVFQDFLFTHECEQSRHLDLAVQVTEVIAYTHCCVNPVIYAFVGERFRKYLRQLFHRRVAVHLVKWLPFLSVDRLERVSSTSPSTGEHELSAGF
Procedure: Compounds are assessed for the ability to block the interaction of CCR1 and MIP-1α in a functional cellular assay measuring calcium flux in CCR1 transfected cells.
Method B: Non-adherent cells purchased from Chemicon Corporation (HTS005C), stably expressing recombinant CCR1 and G-alpha-16 are grown in RPMI 1640 medium (Mediatech 10-080-CM) supplemented with 10% FBS, 0.4 mg/mL Geneticin and penicillin/streptomycin. On the day of the assay, the cells are loaded with Calcium 4 dye (Molecular Devices R7448) with Probenecid (Invitrogen P346400) at 8E5 cells/mL for 1 hour at room temperature. After 1 hour, they are seeded in a 384-well tissue culture-treated plate at a density of 20,000 cells/well. Appropriately diluted test compound is added to the well to achieve a top concentration of 3,000 nM (diluted 4-fold with 10 doses total). The final concentration of DMSO is 1%. The buffer is HBSS (Invitrogen 14025) with 20 mM HEPES at pH 7.4. The cells incubate 30 minutes at 37 C and then 30 minutes at room temperature. The plates are transferred to the HAMAMATSU FDSS6000 where MIP-1alpha in 1% BSA is added at the EC80 final concentration. All plates must be read within 4 hours of the start of dye-loading. Wells+/−MIP-1alpha containing diluted DMSO instead of compound serve as the controls. Data are analyzed using Activity Base software.

First: CCC[C@H](NC(=O)N1c2cnn(-c3ccc(F)cc3)c2CCC1C(F)(F)F)c1cc(S(C)(=O)=O)ccc1F (single isomer, unassigned) [Example 77]
Second: CCC[C@H](NC(=O)N1c2cnn(-c3ccc(F)cc3)c2CCC1C(F)(F)F)c1ccc(S(C)(=O)=O)cc1F (stereo partly drawn) [Example 69]
The IC50 of the first is 3.4-fold higher: 37 nM for the first, 11 nM for the second. The second is the more potent here.

First: CCC[C@H](NC(=O)N1c2cnn(-c3ccc(F)cc3)c2CCC1C)c1ccnc(S(C)(=O)=O)c1 (single isomer, unassigned) [Example 80]
Second: CCC[C@H](NC(=O)N1c2cnn(-c3ccc(Cl)cc3)c2CCC1C)c1ccnc(S(C)(=O)=O)c1 (stereo partly drawn) [Example 93]
The IC50 of the first is 1.7-fold higher: 31 nM for the first, 18 nM for the second.

First: CCC[C@H](NC(=O)N1c2cnn(-c3ccc(F)cc3)c2CCC1C)c1ccnc(S(C)(=O)=O)c1 (single isomer, unassigned) [Example 81]
Second: CC1CCc2c(cnn2-c2ccc(F)cc2)N1C(=O)N[C@@H](C)c1ccnc(S(C)(=O)=O)c1 (stereo partly drawn) [Example 54]
The IC50 of the first is 170-fold lower: 4 nM for the first, 684 nM for the second. The first is the more potent here.

First: C[C@H](NC(=O)N1CCCc2c1cnn2-c1ccc(F)cc1)c1ccccc1 [Example 2]
Second: C[C@@H](NC(=O)N1CCCc2c1cnn2-c1ccc(F)cc1)c1ccccc1 [Example 6]
The IC50 of the first is 3.6-fold higher: 453 nM for the first, 125 nM for the second. The second is the more potent here.

Compared with O=C(NCCc1ccccc1)N1CCCc2c1cnn2-c1ccc(F)cc1 [Example 3], O=C(NCc1ccccc1)N1CCCc2c1cnn2-c1ccc(F)cc1 [Example 19] is 3.1-fold higher in IC50: 126 nM for the first, 395 nM for the second. The first is the more potent here.

Cc1ccccc1CNC(=O)N1CCCc2c1cnn2-c1ccc(F)cc1 [Example 4] and O=C(NCc1ccccc1F)N1CCCc2c1cnn2-c1ccc(F)cc1 [Example 8] are within 1.5-fold of each other in IC50: 283 nM for the first, 266 nM for the second.

First: Cc1ccc(CNC(=O)N2CCCc3c2cnn3-c2ccc(F)cc2)cc1 [Example 5]
Second: O=C(NCc1ccc(F)cc1)N1CCCc2c1cnn2-c1ccc(F)cc1 [Example 7]
The IC50 of the first is 2-fold lower: 90 nM for the first, 183 nM for the second. The first is the more potent here.

O=C(NCc1cccc(F)c1)N1CCCc2c1cnn2-c1ccc(F)cc1 [Example 9] and Cc1cccc(CNC(=O)N2CCCc3c2cnn3-c2ccc(F)cc2)c1 [Example 18] are within 1.5-fold of each other in IC50: 108 nM for the first, 131 nM for the second.

Going from COc1ccc(CNC(=O)N2CCCc3c2cnn3-c2ccc(F)cc2)cc1 [Example 10] to O=C(NCc1ccc(Cl)cc1)N1CCCc2c1cnn2-c1ccc(F)cc1 [Example 13], the IC50 falls from 266 nM to 45 nM (5.9-fold).

Compared with COc1ccccc1CNC(=O)N1CCCc2c1cnn2-c1ccc(F)cc1 [Example 11], O=C(NCc1ccccc1Cl)N1CCCc2c1cnn2-c1ccc(F)cc1 [Example 12] is 4.4-fold lower in IC50: 610 nM for the first, 138 nM for the second. The second is the more potent here.

COc1ccc([C@H](C)NC(=O)N2CCCc3c2cnn3-c2ccc(F)cc2)cc1 [Example 14] and C[C@H](NC(=O)N1CCCc2c1cnn2-c1ccc(F)cc1)c1ccc(S(C)(=O)=O)nc1 [Example 52] are within 1.5-fold of each other in IC50: 102 nM for the first, 128 nM for the second.

Going from O=C(Nc1cccc(C(F)(F)F)c1)N1CCCc2c1cnn2-c1ccc(F)cc1 [Example 15] to O=C(NCc1cccc(C(F)(F)F)c1)N1CCCc2c1cnn2-c1ccc(F)cc1 [Example 21, 1-(4-Fluorophenyl)-N-[3-(trifluoromethyl)benzyl]-1,5,6,7-tetrahydro-4H-pyrazolo[4,3-b]pyridine-4-carboxamide], the IC50 falls from 115 nM to 1 nM (120-fold). The second is the more potent here.

Going from O=C(NCc1ccc(Cl)cc1Cl)N1CCCc2c1cnn2-c1ccc(F)cc1 [Example 16] to O=C(NCc1ccc(Cl)c(Cl)c1)N1CCCc2c1cnn2-c1ccc(F)cc1 [Example 17], the IC50 falls from 12 nM to 1 nM (12-fold).

First: COc1cccc(CNC(=O)N2CCCc3c2cnn3-c2ccc(F)cc2)c1 [Example 20]
Second: CNS(=O)(=O)c1cccc(CNC(=O)N2CCCc3c2cnn3-c2ccc(F)cc2)c1 [Example 29]
The IC50 of the first is 5.7-fold higher: 91 nM for the first, 16 nM for the second. The second is the more potent here.

First: O=C(NCc1ccc(S(=O)(=O)N2CCOCC2)cc1)N1CCCc2c1cnn2-c1ccc(F)cc1 [Example 27]
Second: O=C(NCc1ccc(Br)cc1)N1CCCc2c1cnn2-c1ccc(F)cc1 [Example 37]
The IC50 of the first is 1.7-fold higher: 68 nM for the first, 40 nM for the second.

Going from CS(=O)(=O)c1ccc(CNC(=O)N2CCCc3c2cnn3-c2ccc(F)cc2)cn1 [Example 30] to CS(=O)(=O)c1cc(CNC(=O)N2CCCc3c2cnn3-c2ccc(F)cc2)ccn1 [Example 32], the IC50 falls from 94 nM to 34 nM (2.8-fold). The second is the more potent here.

CS(=O)(=O)c1ccc(CNC(=O)N2CCCc3c2cnn3-c2ccc(F)cc2)cc1O [Example 43, 1-(4-Fluorophenyl)-1,5,6,7-tetrahydro-pyrazolo[4,3-b]pyridine-4-carboxylic acid 3-hydroxy-4-methanesulfonyl-benzylamide] and C[C@H](NC(=O)N1CCCc2c1cnn2-c1ccc(F)cc1)c1cncc(S(C)(=O)=O)c1 [Example 44, 1-(4-Fluorophenyl)-1,5,6,7-tetrahydro-pyrazolo[4,3-b]pyridine-4-carboxylic acid [(S)-1-(5-methanesulfonyl-pyridin-3-yl)-ethyl]-amide] are within 1.5-fold of each other in IC50: 25 nM for the first, 18 nM for the second.

Compared with CC1CCc2c(cnn2-c2ccc(F)cc2)N1C(=O)NCc1ccnc(S(C)(=O)=O)c1 (stereo not drawn) [Example 53], CCC[C@H](NC(=O)N1c2cnn(-c3ccc(F)cc3)c2CCC1C)c1ccnc(S(C)(=O)=O)c1 (stereo partly drawn) [Example 70] is 260-fold lower in IC50: 1280 nM for the first, 5 nM for the second.

Going from CC[C@H](NC(=O)N1c2cnn(-c3ccc(F)cc3)c2CCC1C(F)(F)F)c1ccnc(S(C)(=O)=O)c1 (stereo partly drawn) [Example 58] to CC[C@H](NC(=O)N1c2cnn(-c3ccc(F)cc3)c2CCC1C(F)(F)F)c1ccc(S(C)(=O)=O)c(O)c1 (stereo partly drawn) [Example 85], the IC50 falls from 84 nM to 23 nM (3.7-fold). The second is the more potent here.

Going from CS(=O)(=O)c1cc(C2(NC(=O)N3c4cnn(-c5ccc(F)cc5)c4CCC3C(F)(F)F)CC2)ccn1 (stereo not drawn) [Example 64] to CCC[C@H](NC(=O)N1c2cnn(-c3ccc(F)cc3)c2CCC1C(F)(F)F)c1cccc(S(C)(=O)=O)n1 (stereo partly drawn) [Example 94], the IC50 falls from 1850 nM to 57 nM (32-fold).

First: CCC[C@H](NC(=O)N1CCCc2c1cnn2C1CCCCC1)c1ccnc(S(C)(=O)=O)c1 [Example 65]
Second: CCC[C@H](NC(=O)N1CCCc2c1cnn2C1CCCC1)c1ccnc(S(C)(=O)=O)c1 [Example 67]
The IC50 of the first is 1.7-fold higher: 330 nM for the first, 194 nM for the second. The second is the more potent here.

First: CCC[C@H](NC(=O)N1c2cnn(-c3ccc(F)cc3)c2CCC1C(F)(F)F)c1ccc(Br)cc1F (stereo partly drawn) [Example 68]
Second: CCC[C@H](NC(=O)N1c2cnn(-c3ccc(F)cc3)c2CCC1C(F)(F)F)c1ccc(OC)c(Br)c1 (stereo partly drawn) [Example 97]
The IC50 of the first is 41-fold higher: 205 nM for the first, 5 nM for the second. The second is the more potent here.

Going from CCC[C@H](NC(=O)N1CCCc2c1cnn2-c1ccc(Cl)cc1)c1ccnc(S(C)(=O)=O)c1 [Example 71] to CCC[C@H](NC(=O)N1CCCc2c1cnn2-c1ccc(F)c(Cl)c1)c1ccnc(S(C)(=O)=O)c1 [Example 86], the IC50 rises from 0.3 nM to 2 nM (6.7-fold).

Going from CCC[C@H](NC(=O)N1CCCCc2c1cnn2-c1ccc(F)cc1)c1ccnc(S(C)(=O)=O)c1 [Example 72] to CCC[C@H](NC(=O)N1CCc2c1cnn2-c1ccc(F)cc1)c1ccnc(S(C)(=O)=O)c1 [Example 87, 1-(4-Fluorophenyl)-5,6-dihydro-1H-pyrrolo[3,2-c]pyrazole-4-carboxylic acid [(S)-1-(2-methanesulfonyl-pyridin-4-yl)-butyl]-amide], the IC50 falls from 344 nM to 10 nM (34-fold).

First: CCC[C@H](NC(=O)N1CCCCc2c1cnn2-c1ccc(F)cc1)c1cncc(S(C)(=O)=O)c1 [Example 75]
Second: CC[C@H](NC(=O)N1CCc2c1cnn2-c1ccc(F)cc1)c1cccc(S(C)(=O)=O)c1 [Example 89]
The IC50 of the first is 19-fold higher: 640 nM for the first, 34 nM for the second. The second is the more potent here.

Compared with CCC[C@H](NC(=O)N1CC(C(F)(F)F)Cc2c1cnn2-c1ccc(F)cc1)c1ccnc(S(C)(=O)=O)c1 (stereo partly drawn) [Example 78], C[C@H](NC(=O)N1CC(C(F)(F)F)Cc2c1cnn2-c1ccc(F)cc1)c1ccnc(S(C)(=O)=O)c1 (stereo partly drawn) [Example 83] is 320-fold higher in IC50: 4 nM for the first, 1260 nM for the second. The first is the more potent here.

Compared with CCC[C@H](NC(=O)N1CC(C(F)(F)F)Cc2c1cnn2-c1ccc(F)cc1)c1ccnc(S(C)(=O)=O)c1 (stereo partly drawn) [Example 79], CCC[C@H](NC(=O)N1CCCc2c1c(C)nn2-c1ccc(F)cc1)c1ccnc(S(C)(=O)=O)c1 [Example 98] is 780-fold higher in IC50: 2 nM for the first, 1570 nM for the second. The first is the more potent here.

Going from CC[C@H](NC(=O)N1c2cnn(-c3ccc(F)cc3)c2CCC1C(F)(F)F)c1ccc(OC)c(S(C)(=O)=O)c1 (stereo partly drawn) [Example 82] to CC[C@H](NC(=O)N1c2cnn(-c3ccc(F)cc3)c2CCC1C(F)(F)F)c1ccc(S(C)(=O)=O)c(OC)c1 (stereo partly drawn) [Example 84], the IC50 falls from 23 nM to 14 nM (1.6-fold).

Compared with CCC[C@H](NC(=O)N1CCc2c1cnn2-c1ccc(F)cc1)c1ccnc(C)c1 [Example 88], CCC[C@H](NC(=O)N1c2cnn(-c3ccc(F)cc3)c2CCC1C(F)(F)F)c1ccc(O)c(S(C)(=O)=O)c1 (stereo partly drawn) [Example 96] is 7.4-fold lower in IC50: 52 nM for the first, 7 nM for the second.

CCC[C@H](NC(=O)N1c2cnn(-c3ccc(F)cc3)c2CCC1C(F)(F)F)c1cc(F)cc(S(C)(=O)=O)c1 (stereo partly drawn) [Example 90] and CCC[C@H](NC(=O)N1c2cnn(-c3ccc(F)cc3)c2CCC1C(F)(F)F)c1ccc(OC)c(S(C)(=O)=O)c1 (stereo partly drawn) [Example 95] are the same in IC50: 6 nM for the first, 6 nM for the second.
